From paper PMC10006169, “A phase I trial of LXS196, a protein kinase C (PKC) inhibitor, for metastatic uveal melanoma” (British Journal of Cancer, 2023)
Values joined by “and” are separate entries in the source; they are usually repeats but may differ in a detail not shown here. Equal entries are not always repeated. Marks after values point to notes of the source that are not given here.

System: patients with MUM
Experiment: Grade ≥3 serious adverse events regardless of study drug relationship
Assay type: in vivo, human
Experimental: Routine safety assessments, including laboratory assessments, physical examinations, vital signs and electrocardiograms (ECGs), were conducted at regular intervals throughout the study and more frequently as needed following patient assessment by the treating physician. Adverse events (AEs) were assessed continuously according to the National Cancer Institute Common Terminology Criteria for Adverse Events (NCI-CTCAE) v4.03.

CC1(N)CCN(c2cccnc2NC(=O)c2nc(-c3ncccc3C(F)(F)F)cnc2N)CC1 [LXS196]
Acute kidney injury SAE (100 mg QD): 0 n (%) | Cellulitis SAE (100 mg QD): 0 n (%) | Constipation SAE (100 mg QD): 0 n (%) | Diarrhoea SAE (100 mg QD): 0 n (%) | Eyelid bleeding SAE (100 mg QD): 0 n (%) | Hepatic cytolysis SAE (100 mg QD): 0 n (%) | Hepatic failure SAE (100 mg QD): 0 n (%) | Hypotension SAE (100 mg QD): 0 n (%) | Nausea SAE (100 mg QD): 0 n (%) | Neutrophil count decreased SAE (100 mg QD): 0 n (%) | Oedema peripheral SAE (100 mg QD): 0 n (%) | Patients with ≥1 SAE (100 mg QD): 0 n (%) | Pneumonia SAE (100 mg QD): 0 n (%) | Rash pruritic SAE (100 mg QD): 0 n (%) | Thrombocytopenia SAE (100 mg QD): 0 n (%) | Vomiting SAE (100 mg QD): 0 n (%) | Acute kidney injury SAE (200 mg BID): 0 n (%) | Cellulitis SAE (200 mg BID): 1 (16.7) n (%) | Constipation SAE (200 mg BID): 0 n (%) | Diarrhoea SAE (200 mg BID): 0 n (%) | Eyelid bleeding SAE (200 mg BID): 0 n (%) | Hepatic cytolysis SAE (200 mg BID): 0 n (%) | Hepatic failure SAE (200 mg BID): 0 n (%) | Hypotension SAE (200 mg BID): 0 n (%) | Nausea SAE (200 mg BID): 0 n (%) | Neutrophil count decreased SAE (200 mg BID): 0 n (%) | Oedema peripheral SAE (200 mg BID): 0 n (%) | Patients with ≥1 SAE (200 mg BID): 1 (16.7) n (%) | Pneumonia SAE (200 mg BID): 0 n (%) | Rash pruritic SAE (200 mg BID): 0 n (%) | Thrombocytopenia SAE (200 mg BID): 0 n (%) | Vomiting SAE (200 mg BID): 0 n (%) | Acute kidney injury SAE (200 mg QD): 0 n (%) | Cellulitis SAE (200 mg QD): 0 n (%) | Diarrhoea SAE (200 mg QD): 0 n (%) | Eyelid bleeding SAE (200 mg QD): 0 n (%) | Hepatic cytolysis SAE (200 mg QD): 0 n (%) | Hepatic failure SAE (200 mg QD): 0 n (%) | Hypotension SAE (200 mg QD): 0 n (%) | Nausea SAE (200 mg QD): 1 (25.0) n (%) | Neutrophil count decreased SAE (200 mg QD): 0 n (%) | Oedema peripheral SAE (200 mg QD): 0 n (%) | Patients with ≥1 SAE (200 mg QD): 1 (25.0) n (%) | Pneumonia SAE (200 mg QD): 1 (25.0) n (%) | Rash pruritic SAE (200 mg QD): 0 n (%) | Thrombocytopenia SAE (200 mg QD): 0 n (%) | Vomiting SAE (200 mg QD): 1 (25.0) n (%) | Acute kidney injury SAE (300 mg BID (RDE)): 1 (5.6) n (%) | Cellulitis SAE (300 mg BID (RDE)): 0 n (%) | Constipation SAE (300 mg BID (RDE)): 0 n (%) | Diarrhoea SAE (300 mg BID (RDE)): 0 n (%) | Eyelid bleeding SAE (300 mg BID (RDE)): 1 (5.6) n (%) | Hepatic cytolysis SAE (300 mg BID (RDE)): 1 (5.6) n (%) | Hepatic failure SAE (300 mg BID (RDE)): 1 (5.6) n (%) | Hypotension SAE (300 mg BID (RDE)): 0 n (%) | Nausea SAE (300 mg BID (RDE)): 0 n (%) | Neutrophil count decreased SAE (300 mg BID (RDE)): 1 (5.6) n (%) | Oedema peripheral SAE (300 mg BID (RDE)): 1 (5.6) n (%) | Patients with ≥1 SAE (300 mg BID (RDE)): 5 (27.8) n (%) | Pneumonia SAE (300 mg BID (RDE)): 1 (5.6) n (%) | Rash pruritic SAE (300 mg BID (RDE)): 1 (5.6) n (%) | Thrombocytopenia SAE (300 mg BID (RDE)): 1 (5.6) n (%) | Vomiting SAE (300 mg BID (RDE)): 0 n (%) | Acute kidney injury SAE (300 mg QD): 0 n (%) | Cellulitis SAE (300 mg QD): 0 n (%) | Constipation SAE (300 mg QD): 0 n (%) | Diarrhoea SAE (300 mg QD): 0 n (%) | Eyelid bleeding SAE (300 mg QD): 0 n (%) | Hepatic cytolysis SAE (300 mg QD): 0 n (%) | Hepatic failure SAE (300 mg QD): 0 n (%) | Hypotension SAE (300 mg QD): 0 n (%) | Nausea SAE (300 mg QD): 0 n (%) | Neutrophil count decreased SAE (300 mg QD): 0 n (%) | Oedema peripheral SAE (300 mg QD): 0 n (%) | Patients with ≥1 SAE (300 mg QD): 0 n (%) | Pneumonia SAE (300 mg QD): 0 n (%) | Rash pruritic SAE (300 mg QD): 0 n (%) | Thrombocytopenia SAE (300 mg QD): 0 n (%) | Vomiting SAE (300 mg QD): 0 n (%) | Acute kidney injury SAE (400 mg BID): 0 n (%) | Cellulitis SAE (400 mg BID): 0 n (%) | Constipation SAE (400 mg BID): 0 n (%) | Diarrhoea SAE (400 mg BID): 0 n (%) | Eyelid bleeding SAE (400 mg BID): 0 n (%) | Hepatic cytolysis SAE (400 mg BID): 0 n (%) | Hepatic failure SAE (400 mg BID): 0 n (%) | Hypotension SAE (400 mg BID): 1 (16.7) n (%) | Nausea SAE (400 mg BID): 0 n (%) | Neutrophil count decreased SAE (400 mg BID): 0 n (%) | Oedema peripheral SAE (400 mg BID): 0 n (%) | Patients with ≥1 SAE (400 mg BID): 1 (16.7) n (%) | Pneumonia SAE (400 mg BID): 0 n (%) | Rash pruritic SAE (400 mg BID): 0 n (%) | Thrombocytopenia SAE (400 mg BID): 0 n (%) | Vomiting SAE (400 mg BID): 0 n (%) | Acute kidney injury SAE (500 mg QD): 0 n (%) | Cellulitis SAE (500 mg QD): 0 n (%) | Constipation SAE (500 mg QD): 0 n (%) | Diarrhoea SAE (500 mg QD): 0^b n (%) | Eyelid bleeding SAE (500 mg QD): 0 n (%) | Hepatic cytolysis SAE (500 mg QD): 0 n (%) | Hepatic failure SAE (500 mg QD): 0 n (%) | Hypotension SAE (500 mg QD): 3 (27.3) n (%) | Nausea SAE (500 mg QD): 0 n (%) | Neutrophil count decreased SAE (500 mg QD): 0 n (%) | Oedema peripheral SAE (500 mg QD): 0 n (%) | Patients with ≥1 SAE (500 mg QD): 3 (27.3) n (%) | Pneumonia SAE (500 mg QD): 0 n (%) | Rash pruritic SAE (500 mg QD): 0 n (%) | Thrombocytopenia SAE (500 mg QD): 0 n (%) | Vomiting SAE (500 mg QD): 0 n (%) | Acute kidney injury SAE (800 mg QD): 0 n (%) | Cellulitis SAE (800 mg QD): 0 n (%) | Constipation SAE (800 mg QD): 0 n (%) | Diarrhoea SAE (800 mg QD): 0 n (%) | Eyelid bleeding SAE (800 mg QD): 0 n (%) | Hepatic cytolysis SAE (800 mg QD): 0 n (%) | Hepatic failure SAE (800 mg QD): 0 n (%) | Hypotension SAE (800 mg QD): 1 (100) n (%) | Nausea SAE (800 mg QD): 0 n (%) | Neutrophil count decreased SAE (800 mg QD): 0 n (%) | Oedema peripheral SAE (800 mg QD): 0 n (%) | Patients with ≥1 SAE (800 mg QD): 1 (100) n (%) | Pneumonia SAE (800 mg QD): 0 n (%) | Rash pruritic SAE (800 mg QD): 0 n (%) | Thrombocytopenia SAE (800 mg QD): 0 n (%) | Vomiting SAE (800 mg QD): 0 n (%) | Acute kidney injury SAE (1000 mg QD): 0 n (%) | Cellulitis SAE (1000 mg QD): 0 n (%) | Constipation SAE (1000 mg QD): 0 n (%) | Diarrhoea SAE (1000 mg QD): 0 n (%) | Eyelid bleeding SAE (1000 mg QD): 0 n (%) | Hepatic cytolysis SAE (1000 mg QD): 0 n (%) | Hepatic failure SAE (1000 mg QD): 0 n (%) | Hypotension SAE (1000 mg QD): 1 (25.0) n (%) | Nausea SAE (1000 mg QD): 0 n (%) | Neutrophil count decreased SAE (1000 mg QD): 0 n (%) | Oedema peripheral SAE (1000 mg QD): 0 n (%) | Patients with ≥1 SAE (1000 mg QD): 2 (50.0) n (%) | Pneumonia SAE (1000 mg QD): 1 (25.0) n (%) | Rash pruritic SAE (1000 mg QD): 0 n (%) | Thrombocytopenia SAE (1000 mg QD): 0 n (%) | Vomiting SAE (1000 mg QD): 0 n (%) | Acute kidney injury SAE (All BID): 1 (3.3) n (%) | Cellulitis SAE (All BID): 1 (3.3) n (%) | Constipation SAE (All BID): 0 n (%) | Diarrhoea SAE (All BID): 0 n (%) | Eyelid bleeding SAE (All BID): 1 (3.3) n (%) | Hepatic cytolysis SAE (All BID): 1 (3.3) n (%) | Hepatic failure SAE (All BID): 1 (3.3) n (%) | Hypotension SAE (All BID): 1 (3.3) n (%) | Nausea SAE (All BID): 0 n (%) | Neutrophil count decreased SAE (All BID): 1 (3.3) n (%) | Oedema peripheral SAE (All BID): 1 (3.3) n (%) | Patients with ≥1 SAE (All BID): 7 (23.3) n (%) | Pneumonia SAE (All BID): 1 (3.3) n (%) | Rash pruritic SAE (All BID): 1 (3.3) n (%) | Thrombocytopenia SAE (All BID): 1 (3.3) n (%) | Vomiting SAE (All BID): 0 n (%) | Acute kidney injury SAE (All QD): 0 n (%) | Cellulitis SAE (All QD): 0 n (%) | Constipation SAE (All QD): 0^b n (%) | Diarrhoea SAE (All QD): 0^b n (%) | Eyelid bleeding SAE (All QD): 0 n (%) | Hepatic cytolysis SAE (All QD): 0 n (%) | Hepatic failure SAE (All QD): 0 n (%) | Hypotension SAE (All QD): 5 (13.2) n (%) | Nausea SAE (All QD): 1 (2.6) n (%) | Neutrophil count decreased SAE (All QD): 0 n (%) | Oedema peripheral SAE (All QD): 0 n (%) | Patients with ≥1 SAE (All QD): 7 (18.4) n (%) | Pneumonia SAE (All QD): 2 (5.3) n (%) | Rash pruritic SAE (All QD): 0 n (%) | Thrombocytopenia SAE (All QD): 0 n (%) | Vomiting SAE (All QD): 1 (2.6) n (%) | Acute kidney injury SAE (All patients): 1 (1.5) n (%) | Cellulitis SAE (All patients): 1 (1.5) n (%) | Constipation SAE (All patients): 0^b n (%) | Diarrhoea SAE (All patients): 0^b n (%) | Eyelid bleeding SAE (All patients): 1 (1.5) n (%) | Hepatic cytolysis SAE (All patients): 1 (1.5) n (%) | Hepatic failure SAE (All patients): 1 (1.5) n (%) | Hypotension SAE (All patients): 6 (8.8) n (%) | Nausea SAE (All patients): 1 (1.5) n (%) | Neutrophil count decreased SAE (All patients): 1 (1.5) n (%) | Oedema peripheral SAE (All patients): 1 (1.5) n (%) | Patients with ≥1 SAE (All patients): 14 (20.6%) n (%) and 14 (20.6) n (%) | Pneumonia SAE (All patients): 3 (4.4) n (%) | Rash pruritic SAE (All patients): 1 (1.5) n (%) | Thrombocytopenia SAE (All patients): 1 (1.5) n (%) | Vomiting SAE (All patients): 1 (1.5) n (%)
